The term pIC50 denotes −log10 of the IC50, conventionally taken in molar units. As a reminder, the pEC50 is −log10 of the EC50, conventionally taken in molar units.

pEC50, pIC50: −log10 of the molar value. The source made the active and inactive calls. The calls are words filed in the database; no cut-off is given here.

These results are taken from ChEMBL document CHEMBL1681753, “Discovery of new inhibitor for PDE3 by virtual screening” (Bioorg Med Chem Lett, 2011).

Assay [1] relates to 3T3-L1. Description: Effect on adipogenesis in mouse 3T3L1 cells assessed as G3PD mRNA expression by RT-PCR method. In kind it is functional, cell-based.
A further assay deals with Adipocyte. Description: Induction of lipolysis in human Adipocyte assessed as glycerol concentration at 10 uM relative to control. The class given is functional.
Assay [2] has as its target cGMP-inhibited 3',5'-cyclic phosphodiesterase 3B (Homo sapiens, UniProt Q13370). Description: Inhibition of human recombinant PDE3B.
For assay [3], the system named is 3T3-L1. Description: Effect on adipogenesis in mouse 3T3L1 cells assessed as PPARgamma mRNA expression by RT-PCR method. The class given is functional, cell-based.
Assay [4] concerns C3H 10T1/2. Description: Induction of lipolysis in mouse C3H10T1/2 assessed as glycerol concentration at 10 uM relative to control. In kind it is functional.
Assay [5] concerns 3T3-L1. Description: Effect on adipogenesis in mouse 3T3L1 cells assessed as adiponectin mRNA expression by RT-PCR method. In kind it is functional, cell-based.
The test system of assay [6] is 3T3-L1. Description: Effect on adipogenesis in mouse 3T3L1 cells assessed as cellular lipid content by Oil red O staining. The class given is functional, cell-based.
Assay [7] has as its system 3T3-L1. Description: Effect on adipogenesis in mouse 3T3L1 cells assessed as FABP4 mRNA expression by RT-PCR method. The class given is functional, cell-based.
Assay [8] deals with C3H 10T1/2. Description: Induction of lipolysis in mouse C3H10T1/2 assessed as glycerol concentration. In kind it is functional, cell-based.
Assay [9] addresses cGMP-inhibited 3',5'-cyclic phosphodiesterase 3A (Homo sapiens, UniProt Q14432). Description: Inhibition of human recombinant PDE3A.

Sequence of cGMP-inhibited 3',5'-cyclic phosphodiesterase 3B (Q13370 whole entry): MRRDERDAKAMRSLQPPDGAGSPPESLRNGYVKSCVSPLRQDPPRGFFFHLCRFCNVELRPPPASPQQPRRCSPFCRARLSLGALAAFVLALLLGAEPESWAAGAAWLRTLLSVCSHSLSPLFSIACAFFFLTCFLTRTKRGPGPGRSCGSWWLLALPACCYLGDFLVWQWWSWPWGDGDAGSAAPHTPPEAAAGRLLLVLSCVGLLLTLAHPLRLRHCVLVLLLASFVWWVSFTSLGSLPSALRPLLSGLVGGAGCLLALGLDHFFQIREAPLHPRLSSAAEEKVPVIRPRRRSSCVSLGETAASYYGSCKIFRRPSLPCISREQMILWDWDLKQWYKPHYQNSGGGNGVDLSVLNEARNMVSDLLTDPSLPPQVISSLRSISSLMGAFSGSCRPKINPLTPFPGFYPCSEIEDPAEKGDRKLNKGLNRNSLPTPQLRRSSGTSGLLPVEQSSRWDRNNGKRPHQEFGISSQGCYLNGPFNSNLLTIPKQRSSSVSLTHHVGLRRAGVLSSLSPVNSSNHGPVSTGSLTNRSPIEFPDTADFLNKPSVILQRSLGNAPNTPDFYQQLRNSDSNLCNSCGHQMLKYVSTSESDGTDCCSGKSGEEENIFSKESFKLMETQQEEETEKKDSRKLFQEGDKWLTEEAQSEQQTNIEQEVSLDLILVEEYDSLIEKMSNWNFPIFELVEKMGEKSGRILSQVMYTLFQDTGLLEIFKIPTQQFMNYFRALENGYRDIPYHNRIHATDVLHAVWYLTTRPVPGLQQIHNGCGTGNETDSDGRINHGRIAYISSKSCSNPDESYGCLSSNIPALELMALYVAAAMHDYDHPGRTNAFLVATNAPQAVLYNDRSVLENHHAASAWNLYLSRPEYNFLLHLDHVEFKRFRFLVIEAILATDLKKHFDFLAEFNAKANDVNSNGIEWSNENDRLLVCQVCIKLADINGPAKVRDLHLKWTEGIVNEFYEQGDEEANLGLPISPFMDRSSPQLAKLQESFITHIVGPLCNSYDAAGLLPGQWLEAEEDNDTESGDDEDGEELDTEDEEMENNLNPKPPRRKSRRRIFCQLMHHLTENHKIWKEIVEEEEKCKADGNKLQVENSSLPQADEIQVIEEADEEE
Sequence of cGMP-inhibited 3',5'-cyclic phosphodiesterase 3A (Q14432 whole entry): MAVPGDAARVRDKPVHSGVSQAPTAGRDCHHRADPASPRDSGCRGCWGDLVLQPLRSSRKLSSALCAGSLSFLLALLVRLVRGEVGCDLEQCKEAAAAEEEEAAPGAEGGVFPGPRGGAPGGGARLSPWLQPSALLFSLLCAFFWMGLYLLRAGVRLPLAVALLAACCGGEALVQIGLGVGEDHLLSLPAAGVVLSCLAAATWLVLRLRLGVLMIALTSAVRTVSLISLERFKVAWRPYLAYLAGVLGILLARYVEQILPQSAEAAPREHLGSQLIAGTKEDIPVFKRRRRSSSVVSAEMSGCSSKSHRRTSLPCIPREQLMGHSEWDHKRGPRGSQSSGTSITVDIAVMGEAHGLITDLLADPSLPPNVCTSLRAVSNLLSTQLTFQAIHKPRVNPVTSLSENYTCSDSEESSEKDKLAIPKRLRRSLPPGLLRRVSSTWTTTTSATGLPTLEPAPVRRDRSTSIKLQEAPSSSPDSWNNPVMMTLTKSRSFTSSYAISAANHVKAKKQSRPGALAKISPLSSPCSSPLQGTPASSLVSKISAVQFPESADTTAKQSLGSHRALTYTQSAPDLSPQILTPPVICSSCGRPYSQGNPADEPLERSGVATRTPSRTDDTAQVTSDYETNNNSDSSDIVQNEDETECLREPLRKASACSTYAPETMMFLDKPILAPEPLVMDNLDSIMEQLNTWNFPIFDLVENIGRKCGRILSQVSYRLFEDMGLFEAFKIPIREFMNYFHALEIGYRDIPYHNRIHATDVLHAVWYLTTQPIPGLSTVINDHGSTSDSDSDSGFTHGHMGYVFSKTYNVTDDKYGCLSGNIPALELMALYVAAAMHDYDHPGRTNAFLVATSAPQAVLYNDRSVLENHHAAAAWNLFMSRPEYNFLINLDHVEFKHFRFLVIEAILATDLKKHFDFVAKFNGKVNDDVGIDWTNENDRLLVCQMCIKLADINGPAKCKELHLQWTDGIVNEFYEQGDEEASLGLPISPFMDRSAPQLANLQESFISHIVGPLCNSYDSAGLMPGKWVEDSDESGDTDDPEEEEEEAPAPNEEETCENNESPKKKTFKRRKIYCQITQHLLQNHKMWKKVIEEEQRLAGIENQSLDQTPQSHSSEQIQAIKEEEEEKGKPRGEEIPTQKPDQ

In the case of `CN(C(=O)CCCOc1ccc2[nH]c(=O)ccc2c1)C1CCCCC1` [CILOSTAMIDE], the result in the assay on 3T3-L1 [1], in the assay with 3T3-L1 [3], in the assay with 3T3-L1 [5], with 3T3-L1 [6] and in the assay on 3T3-L1 [7] was Active. Besides, the Activity amounted to 192.4% in the assay on Adipocyte and 247.36% with C3H 10T1/2 [4]. The negative logarithm of the IC50 (pIC50) in assay [2] was 7.16. For the same molecule, the pEC50 with C3H 10T1/2 [8] is 8.04.
Turning to `CCCC(NS(=O)(=O)c1ccc2c(c1)CCCC(=O)N2)c1cccs1` (stereo not given), the Activity turned out to be 130.2% with Adipocyte and 131.9% in the assay on C3H 10T1/2 [4].
In the case of `C/C(=N\NS(=O)(=O)c1ccc(C)cc1)c1ccc2c(c1)C(C)(C)C(=O)N2`, the result in the assay with 3T3-L1 [1], in the assay on 3T3-L1 [3], in the assay with 3T3-L1 [5], in the assay on 3T3-L1 [6] and in the assay on 3T3-L1 [7] was Active. Also, the Activity worked out at 171.5% in the assay with Adipocyte and 191.7% in the assay with C3H 10T1/2 [4]. Moreover, the negative-log IC50 (pIC50) in [2] was 7.05; in assay [9], 7.83. The pEC50 with C3H 10T1/2 [8] was 8.05.
As to `Cc1ccc(S(=O)(=O)N/N=C2\CC(C)(C)Oc3ccc([N+](=O)[O-])cc32)cc1`, the figures for the Activity in the assay on Adipocyte and in the assay on C3H 10T1/2 [4] were 116.67% and 168.4%, respectively. Also, the pEC50 in the assay on C3H 10T1/2 [8] was 8.28.
In the case of `CC(C)NCC(O)c1ccc(O)c(O)c1` (stereo not given) [ISOPROTERENOL], the Activity is reported as 214.39% with Adipocyte and 291.3% with C3H 10T1/2 [4]. Besides, the negative-log EC50 (pEC50) in the assay on C3H 10T1/2 [8] was 7.72.
Consider `CC1=NN(S(=O)(=O)c2ccc(C)cc2)C(O)(C(F)(F)F)C1` (stereo not given), for which the Activity amounted to 116.67% with Adipocyte and 171.3% in the assay on C3H 10T1/2 [4]. Besides, in the assay with C3H 10T1/2 [8], the pEC50 was 8.17.
